Data taken from US9205113B2, “Synthetic triterpenoids and methods for modulating stem/progenitor cell gene expression” (Trustees of Dartmouth College, priority 2012, dated 2015).

Legend:
[1] = test system: aggrecan; experiment: Western blot in bone marrow stem cell cultures: aggrecan; format: cell-based; settings: 100 nM for 7 days, human BMSC cultures, not detectable in control
Method: (§1) Bone Marrow-Derived Stem Cell Culture and Immunoblotting. Human bone marrow-derived stromal cells, which contain a population of responsive mesenchymal stem cells (ScienCell Research Laboratories), were grown in mesenchymal stem cell medium (ScienCell Research Laboratories). Cells were serum-starved 24 hours prior to all experimental conditions. Immunoblotting was performed using the following antibodies at concentrations (and using protocols) recommended by the respective manufacturers: SOX9 (sc-20095, Santa Cruz Biotechnology), collagen IIα1 (sc-7764 and sc-28887, Santa Cruz), aggrecan (ab3778 and ab36861, Abcam), BMP-2 (ab14933, Abcam), phospho-Smad5 (9516, Cell Signaling Technology), Smad5 (9517, Cell Signaling Technology), β-actin (A1978, SigmaeAldrich). HRP-conjugated IgG TRUEBLOT reagents (18-8814, eBioscience) were used at a dilution of 1:1000.
(§2) Further studies on mechanism were pursued in human bone marrow stem cell (BMSC) cultures. […] BMP-2 is known to induce chondrogenic lineage development of human mesenchymal stem cells in culture (Schmitt, et al. (2003) Differentiation 71:567-77).

[2] = test system: type II collagen (collagen IIα1); experiment: immunohistochemistry of calvarial organ cultures: type II collagen; format: cell-based, mouse; settings: 200 nM, calvarial sections, not seen in control sections
Method: (§3) Calvarial Organ Cultures. Details have been published previously (Garrett, et al. (2003) J. Clin. Invest. 111:1771-82). Calvaria were cultured in BGJ medium supplemented with 1 mg/mL of bovine serum albumin (Cohn fraction V), 100 U/ml each of penicillin/streptomycin, and 0.292 mg/mL of glutamine. On Day 1, the calvaria were treated with synthetic oleanane triterpenoids. On Day 4, the medium was replaced with fresh medium, again containing synthetic oleanane triterpenoids. On Day 7, calvaria were collected, either stored at −80° C. for further RNA analysis or fixed in 10% buffered formalin for 24 hours and transferred to 80% ethanol for histologic analysis.
Histologic Analysis of Calvaria. After fixation for hours, calvaria were decalcified in EDTA, embedded in paraffin and sectioned at 4 μm. Sections were stained either with modified hematoxylin and eosin (H&E) or with toluidine blue (1% in 70% ethanol for 20 minutes, followed by destaining in 70%, 90% and 100% ethanol for 15 seconds), placed in xylene twice, and then mounted. Procedures for immunofluorescence staining have been described (Medici, et al. (2010) Nat. Med. 74:537-45). Primary antibodies against collagen type II (AB746P, Millipore), were used at 1:100 dilution; ALEXFLUOR secondary antibodies (Invitrogen) at 1:200 dilution. For nuclear staining, To-PRO-3 Iodide (T3605, Invitrogen) was used. […]

[3] = test system: newborn mouse calvaria; experiment: histologic analysis of calvarial organ cultures (H&E, toluidine blue): chondrogenesis; format: cell-based; settings: 200 nM, 7 days; for induction of chondrogenesis in newborn mouse calvaria (histology): H&E or toluidine blue sections; for formation of proteoglycans such as aggrecan (metachromatic toluidine blue staining): calvarial sections
Method: as §3
Histologic Analysis of Calvaria. After fixation for hours, calvaria were decalcified in EDTA, embedded in paraffin and sectioned at 4 μm. Sections were stained either with modified hematoxylin and eosin (H&E) or with toluidine blue (1% in 70% ethanol for 20 minutes, followed by destaining in 70%, 90% and 100% ethanol for 15 seconds), placed in xylene twice, and then mounted. Procedures for immunofluorescence staining have been described (Medici, et al. (2010) Nat. Med. 74:537-45). Primary antibodies against collagen type II (AB746P, Millipore), were used at 1:100 dilution; ALEXFLUOR secondary antibodies (Invitrogen) at 1:200 dilution. For nuclear staining, To-PRO-3 Iodide (T3605, Invitrogen) was used.
For the results described here, more than 300 individual calvarial organ cultures were performed. […] No new cartilage was seen on control sections stained with either H&E or toluidine blue. […] With toluidine blue, bone stained orthochromatically (blue).
With respect to dose-response to either synthetic oleanane, 200 nM appeared to be optimal. Treatment with 50 nM triterpenoid yielded only marginal induction of chondrogenesis, while treatment with 500 nM synthetic oleanane gave somewhat variable results. Treatment with […] triterpenoid was invariably toxic to the organ cultures.

[4] = test system: collagen type 2; experiment: Western blot in bone marrow stem cell cultures: collagen type 2; format: cell-based; settings: 100 nM for 7 days, human BMSC cultures, not detectable in control
Method: as §1, §2

[5] = test system: SOX9; experiment: quantitative RT-PCR of calvarial organ cultures: SOX9; format: cell-based; settings: 7 days of culture, newborn mouse calvaria
Method: as §3
(§4) Quantitative RT-PCR (gRT-PCR). Detailed procedures for qRT-PCR are known in the art (Lee, et al. (2006) Biochem. Pharmacol. 72:332-43). In brief, 30 ng of RNA was reverse transcribed to cDNA using the random primers and Applied Biosystems' High Capacity cDNA Archive Kit in a 96-well format MASTERCYCLER Gradient from EPPENDORF. Subsequently, cDNA was amplified with ASSAYS-ON-DEMAND Products containing two gene specific primers and one TAQMAN MGB probe (6-FAM dye-labeled) using the TAQMAN Universal PCR Master Mix in an ABI PRISM 7000 Sequencing Detector (Applied Biosystems). All labeled primers were obtained from Applied Biosystems.
(§5) In addition to the histologic analysis of the calvarial cultures, mechanistic aspects of the action of both CDDO-EA and CDDO-Im were investigated in the calvaria. After 7 days of culture, RNA was isolated from the calvaria and quantitative RT-PCR analysis was performed for more than 15 different markers, including: SOX9, collagen IIα1, all three isoforms of TGF-β, BMPs 2 and 4, BMP receptor II, Smads 3, 4, 6, and 7, tissue inhibitors of metalloproteinases (TIMP-1 and TIMP-2), and matrix metalloproteinase-9 (MMP-9). […] The 50 nM dose was generally ineffective. In contrast, both triterpenoids were strong inhibitors of the expression of MMP-9; CDDO-EA (200 nM) caused almost 80% inhibition of the expression of this metalloproteinase, which is known to be involved in the degradation of cartilage (Shinoda, et al. (2008) J. Biol. Chem. 283:24632-9).

[6] = test system: SOX9; experiment: Western blot in bone marrow stem cell cultures: SOX9; format: cell-based; settings: 100 nM for 7 days, human BMSC cultures, not detectable in control
Method: as §1, §2

[7] = test system: COL2A1; experiment: quantitative RT-PCR of calvarial organ cultures: COL2A1; format: cell-based; settings: 7 days of culture, newborn mouse calvaria
Method: as §3, §4, §5

| Compound | expression of chondrocyte marker aggrecan (Western blot) [1] | formation of type II collagen (collagen IIα1), immunohistochemistry [2] | induction of chondrogenesis in newborn mouse calvaria (histology) [3] | formation of proteoglycans such as aggrecan (metachromatic toluidine blue staining) [3] | expression of chondrocyte marker collagen type 2 (Western blot) [4] | SOX9 expression (quantitative RT-PCR) ([5]; 50 nM) | SOX9 expression (quantitative RT-PCR) ([5]; 200 nM) | SOX9 expression (quantitative RT-PCR) ([5]; 500 nM) | expression of chondrocyte marker SOX9 (Western blot) [6] | COL2A1 expression (quantitative RT-PCR) ([7]; 50 nM) | COL2A1 expression (quantitative RT-PCR) ([7]; 200 nM) | COL2A1 expression (quantitative RT-PCR) ([7]; 500 nM) |
| --- | --- | --- | --- | --- | --- | --- | --- | --- | --- | --- | --- | --- |
| CCNC(=O)[C@]12CCC(C)(C)C[C@H]1[C@H]1C(=O)C=C3[C@@]4(C)C=C(C#N)C(=O)C(C)(C)[C@@H]4CC[C@@]3(C)[C@]1(C)CC2 [CDDO-EA] | induced expression | induced the formation of type II collagen | marked ability to induce chondrogenesis | induce the formation of proteoglycans | induced expression | 1.64 ± 0.17 | 2.62 ± 0.33 | 3.12 ± 0.38 | induced expression | 4.12 ± 1.78 | 5.45 ± 1.13 | 3.18 ± 0.71 |
| CC1(C)CC[C@]2(C(=O)n3ccnc3)CC[C@]3(C)[C@H](C(=O)C=C4[C@@]5(C)C=C(C#N)C(=O)C(C)(C)[C@@H]5CC[C@]43C)[C@@H]2C1 [CDDO-Im, 1-(2-cyano-3,12-dioxooleana-1,9(11)-dien-28-oyl) imidazole] | induced expression | induced the formation of type II collagen | marked ability to induce chondrogenesis | induce the formation of proteoglycans | induced expression | 1.26 ± 0.08 | 1.33 ± 0.05 | 1.83 ± 0.13 | induced expression | 1.45 ± 0.09 | 1.32 ± 0.23 | 1.72 ± 0.39 |
